How the values were obtained:
[1] = Stress Stability study of Polymorphic Form Alpha (PXRD after stress); format: physicochemical
[2] = Stress Stability study of Polymorphic Form RK2 (XRPD after stress); format: physicochemical

PXRD ([1]; 75% RH, 15 h) | PXRD ([1]; 90% RH, 15 h) | PXRD ([1]; Drying at 30° C., 3 h) | PXRD ([1]; Drying at 70° C., 3 h) | PXRD ([1]; Drying at 100° C., 3 h) | PXRD ([1]; Grinding, 10 min) | PXRD ([1]; Hexane Slurry) | PXRD ([1]; Pressure study (17 Kg/cm2; 15 min)) | XRPD pattern after subjecting to various stress conditions ([1]; various stress conditions as mentioned in the Table 1) | XRPD ([2]; 50% RH, 12 h) | XRPD ([2]; 75% RH, 12 h) | XRPD ([2]; 90% RH, 12 h) | XRPD ([2]; Drying at 100° C., 3 h) | XRPD ([2]; Drying at 150° C., 3 h) | XRPD ([2]; MTBE Slurry, 12 h) | XRPD ([2]; Micronization study) | XRPD ([2]; Pressure study (Pressure: 17.5 Kg/cm^2)) | XRPD pattern after subjecting to various stress conditions ([2]; various stress conditions as mentioned in the Table 2) | SMILES
Form Alpha | Form Alpha | Form Alpha | Form Alpha | Form Alpha | Form Alpha | Form Alpha | Form Alpha | stable |  |  |  |  |  |  |  |  |  | Cc1occc(=O)c1[O-].Cc1occc(=O)c1[O-].Cc1occc(=O)c1[O-].[Fe+3] [Polymorphic Form Alpha, 3-hydroxy-2-methyl-4H-pyrane-4-one iron (III) complex (3:1)]
 |  |  |  |  |  |  |  |  | Form RK2 | Form RK2 | Form RK2 | Form RK2 | Form RK2 | Form RK2 | Form RK2 | Form RK2 | stable | Cc1occc(=O)c1[O-].Cc1occc(=O)c1[O-].Cc1occc(=O)c1[O-].[Fe+3] [Polymorphic Form RK2]

— patent publication US20250145580A1, “AN IMPROVED PROCESS FOR THE PREPARATION OF FERRIC MALTOL” (RK Pharma Inc., priority 2021, published 2025)
